Test [1] concerns the target T1, hCRTH2 receptor (Homo sapiens (Human), UniProt Q9Y5Y4). Put plainly: Radioligand displacement assay in presence of human serum albumin (HSA). The following applies: 3H-PGD2 2.5 nM, Binding-Buffer with 0.5% HSA instead of 0.1% BSA. (In a radioligand displacement assay an active substance lowers the binding of a labelled ligand.)
Test [2] has as its system eosinophils. Put plainly: Eosinophil shape change assay with human plasma. It counts as cell-based. The following applies: Eosinophil; human polymorphonuclear cells, 50% human plasma, activated with 100 nM PGD2. The method, then:
After obtaining informed consent, blood samples were drawn by venipuncture according to the protocol approved by the ethics committee of Basel, Switzerland. Polymorphonuclear leukocytes (containing eosinophils, basophils and neutrophils) were isolated using the Polymorphprep™ method (Axis-Shield). In brief, anticoagulated whole blood was layered onto a Polymorphprep gradient (density 1.113 g/ml) and centrifuged at 500 g for 30 min. The polymorphonuclear cell fraction was harvested and depleted for erythrocytes by hypotonic saline lysis.
The polymorphonuclear cells were resuspended in assay buffer (1×PBS with Ca^2+/Mg^2+ supplemented with 0.1% BSA, 10 mM HEPES, and 10 mM Glucose, pH 7.4) at 5×10^6 cells/ml and stained with anti-CD49d-APC ((APC=Allophycocyanin) for 1 hour at RT. Test compounds, at various concentrations, were preincubated 10 min in human plasma (anticoagulated with a thrombin inhibitor). Then, human plasma was added to the polymorphonuclear cells to 50% of final assay volume with polymorphonuclear cells at 4×10^6 cells/rd. After incubation for 10 minutes at 37° C., the polymorphonuclear cells were activated for 5 min at 37° C. by addition of PGD2 at 100 nM final concentration. Activation was stopped by addition of 0.5 ml paraformaldehyde (1%).
Immediately after fixation with paraformaldehyde, the samples were analyzed by FACSCanto flow cytometer (BD Biosciences) and target cells were identified by their forward-scatter (FSC) and side-scatter (SSC) characteristics. Eosinophils were identified by the anti-CD49d-APC signal and their characteristic side-scatter (SSC) profile. Shape change responses, indicative of eosinophil activation, were quantified as the percent of cells with an increased forward-scatter.

The target of test [3] is T1, hCRTH2 receptor. As to the kind of experiment: hCRTH2 receptor membranes radioligand displacement assay (3H-PGD2). The following applies: 3H-PGD2 2.5 nM, HEK293-hCRTH2 membranes, Binding-Buffer with 0.1% BSA.

T1 sequence (Q9Y5Y4 whole entry): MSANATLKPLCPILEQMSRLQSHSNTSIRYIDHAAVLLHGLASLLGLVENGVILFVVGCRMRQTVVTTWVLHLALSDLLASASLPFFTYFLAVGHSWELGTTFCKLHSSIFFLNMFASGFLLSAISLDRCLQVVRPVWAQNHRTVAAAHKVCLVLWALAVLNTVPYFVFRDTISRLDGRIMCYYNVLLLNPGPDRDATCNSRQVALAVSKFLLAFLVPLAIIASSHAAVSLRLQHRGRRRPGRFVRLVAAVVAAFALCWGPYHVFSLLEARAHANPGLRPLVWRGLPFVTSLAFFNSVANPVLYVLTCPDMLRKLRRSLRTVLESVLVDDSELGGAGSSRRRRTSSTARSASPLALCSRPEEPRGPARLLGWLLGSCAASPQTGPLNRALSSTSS

As a reminder, the IC50 is the concentration that gives 50% inhibition. Consider `O=C(O)Cn1c2c(c3cc(F)ccc31)C[C@@H](N(CC1CC1)c1ncc(Cl)cn1)CC2` [Example 27, (3S)-2-(3-((5-chloropyrimidin-2-yl)(cyclopropylmethyl)amino)-6-fluoro-3,4-dihydro-1H-carbazol-9(2H)-yl)acetic acid], for which the IC50 was determined as 6 nM in test [1], 14 nM in test [2] and 1.7 nM in test [3].
The matching figures for `CN(c1ncc2ccccc2n1)[C@H]1CCc2c(c3cc(F)ccc3n2CC(=O)O)C1` [Example 28, (3S)-2-(6-fluoro-3-(methyl(quinazolin-2-yl)amino)-3,4-dihydro-1H-carbazol-9(2H)-yl)acetic acid]: 22 nM, 25 nM and 12 nM.
Taken in the same sequence, the figures for `CN(c1nc2cc(F)ccc2o1)[C@H]1CCc2c(c3cc(F)ccc3n2CC(=O)O)C1` [Example 29, (3S)-2-(6-fluoro-3-((5-fluorobenzo[d]oxazol-2-yl)(methyl)amino)-3,4-dihydro-1H-carbazol-9(2H)-yl)acetic acid] were 7 nM, 4 nM and 4.1 nM.
Taken in the same sequence, the figures for `CN(c1nc2ccc(Cl)cc2s1)[C@H]1CCc2c(c3cc(F)ccc3n2CC(=O)O)C1` [Example 32, (3S)-2-(3-((6-chlorobenzo[d]thiazol-2-yl)(methyl)amino)-6-fluoro-3,4-dihydro-1H-carbazol-9(2H)-yl)acetic acid] were 20 nM, 33 nM and 6.7 nM.
`CN(c1nc2cc(Cl)ccc2s1)[C@H]1CCc2c(c3cc(F)ccc3n2CC(=O)O)C1` [Example 33, (3S)-2-(3-((5-chlorobenzo[d]thiazol-2-yl)(methyl)amino)-6-fluoro-3,4-dihydro-1H-carbazol-9(2H)-yl)acetic acid]: the figures for the IC50 in test [1], in test [2] and in test [3] were 8 nM, 46 nM and 10 nM, respectively.
The matching figures for `COCCN(c1ncc(Cl)cn1)[C@H]1CCc2c(c3cc(F)ccc3n2CC(=O)O)C1` [Example 34, (3S)-2-(3-((5-chloropyrimidin-2-yl)(2-methoxyethyl)amino)-6-fluoro-3,4-dihydro-1H-carbazol-9(2H)-yl)acetic acid]: 14 nM, 8 nM and 5.9 nM.
`CN(c1nc2ccc(F)cc2s1)[C@H]1CCc2c(c3cc(F)ccc3n2CC(=O)O)C1` [Example 38, (3S)-2-(6-fluoro-3-((6-fluorobenzo[d]thiazol-2-yl)(methyl)amino)-3,4-dihydro-1H-carbazol-9(2H)-yl)acetic acid]: the 50% inhibitory concentration (IC50) in test [1] came out at 9 nM; in test [2], 2 nM; in test [3], 1.2 nM.
Taken in the same sequence, the figures for `CN(c1nc2cc(F)ccc2s1)[C@H]1CCc2c(c3cc(F)ccc3n2CC(=O)O)C1` [Example 39, (3S)-2-(6-fluoro-3-((5-fluorobenzo[d]thiazol-2-yl)(methyl)amino)-3,4-dihydro-1H-carbazol-9(2H)-yl)acetic acid] were 6 nM, 16 nM and 3.1 nM.
Turning to `CN(c1nc2ccc(Cl)cc2o1)[C@H]1CCc2c(c3cc(F)ccc3n2CC(=O)O)C1` [Example 40, (3S)-2-(6-fluoro-3-((6-chlorobenzo[d]oxazol-2-yl)(methyl)amino)-3,4-dihydro-1H-carbazol-9(2H)-yl)acetic acid], the half-maximal inhibitory concentration (IC50) in test [1] stood at 21 nM; in test [2], 75 nM; in test [3] it was 2 nM.
In the case of `CN(c1ncc(C2CC2)cn1)[C@H]1CCc2c(c3cc(F)ccc3n2CC(=O)O)C1` [Example 42, (3S)-2-(3-((5-cyclopropylpyrimidin-2-yl)(methyl)amino)-6-fluoro-3,4-dihydro-1H-carbazol-9(2H)-yl)acetic acid], the values for the IC50 in test [1], in test [2] and in test [3] were 36 nM, 19 nM and 2.2 nM, respectively.
Taken in the same sequence, the figures for `CN(c1nc2ccc(F)cc2o1)[C@H]1CCc2c(c3cc(F)ccc3n2CC(=O)O)C1` [Example 43, (3S)-2-(6-fluoro-3-((6-fluorobenzo[d]oxazol-2-yl)(methyl)amino)-3,4-dihydro-1H-carbazol-9(2H)-yl)acetic acid] were 12 nM, 6 nM and 4.6 nM.
The matching figures for `Cc1csc(N(C)C2CCc3c(c4cc(F)ccc4n3CC(=O)O)C2)n1` (stereo not drawn) [Example 45, 2-(6-fluoro-3-(methyl(4-methylthiazol-2-yl)amino)-3,4-dihydro-1H-carbazol-9(2H)-yl)acetic acid]: 25 nM, 414 nM and 9.7 nM.

Source of the values: patent US8697869B2, “3-(heteroaryl-amino)-1,2,3,4-tetrahydro-9H-carbazole derivatives and their use as prostaglandin D2 receptor modulators” (Actelion Pharmaceuticals Ltd., priority 2010, dated 2014).
